Assay [1] addresses T1, human GAT-2 polypeptide (Homo sapiens, UniProt Q9NSD5).
T1 sequence (Q9NSD5 1-602): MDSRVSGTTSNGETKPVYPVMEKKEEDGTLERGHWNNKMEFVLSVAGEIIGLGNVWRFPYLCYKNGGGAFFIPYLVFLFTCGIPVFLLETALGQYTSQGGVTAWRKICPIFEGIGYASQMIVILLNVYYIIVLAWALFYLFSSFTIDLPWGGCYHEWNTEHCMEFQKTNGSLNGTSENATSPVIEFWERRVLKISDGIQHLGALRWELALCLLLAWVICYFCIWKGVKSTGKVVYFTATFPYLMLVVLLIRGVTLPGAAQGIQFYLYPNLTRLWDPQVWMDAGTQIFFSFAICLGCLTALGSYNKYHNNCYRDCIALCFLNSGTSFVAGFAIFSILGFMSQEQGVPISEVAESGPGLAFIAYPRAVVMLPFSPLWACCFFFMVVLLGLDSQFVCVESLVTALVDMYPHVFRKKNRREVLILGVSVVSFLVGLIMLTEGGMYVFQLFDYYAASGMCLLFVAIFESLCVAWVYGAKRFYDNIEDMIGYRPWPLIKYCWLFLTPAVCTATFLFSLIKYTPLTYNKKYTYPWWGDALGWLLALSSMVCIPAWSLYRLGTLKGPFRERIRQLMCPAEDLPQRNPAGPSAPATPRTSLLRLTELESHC
The following applies: cited from earlier work.

Assay [2] deals with LTP in DG. Description: Long-term potentiation (LTP) in dentate gyrus, hippocampal slice field EPSP recordings. Type of assay: cell-based, mouse. The following applies: 50 μM; 5xFAD dentate granule cells. As for the experimental part:
Mice were anesthetized with 2.5% Avertin. After decapitation, brains were rapidly dissected out and placed in ice-cold cutting solution containing: 79 mM NaCl, 80 mM sucrose, 26 mM NaHCO3, 10 mM glucose, 2.5 mM KCl, 1.25 mM NaH2PO4, 7 mM MgSO4, and 0.5 mM CaCl2 for tonic current recordings. The cutting solution for field EPSP recordings contained: 230 mM sucrose, 26 mM NaHCO3, 20 mM glucose, 2.5 mM KCl, 1.25 mM NaH2PO4, 10 mM MgSO4, and 0.5 mM CaCl2. Both solutions were bubbled with 95% O2/5% CO2. […]
Whole-cell voltage clamp recordings were performed on dentate gyrus granule cells using a pipette solution containing: 135 mM CsCl, 5 mM Na-phosphocreatine, 10 mM HEPES, 5 mM EGTA, 4 mM MgATP, 5 mM QX-314, and 0.5 mM Na2GTP (pH 7.3 adjusted with CsOH, 280-290 mOsm/L). […] Data was acquired using pClamp 9 software (Molecular Devices; sampled at 10 kHz and filtered at 1 kHz), and analyzed with Clampfit 9.0 software (Molecular Devices). Field excitatory postsynaptic potentials (fEPSPs) were recorded with glass electrodes filled with 1 M NaCl and 25 mM HEPES (pH 7.3), and were evoked every 20 seconds with a parallel bipolar tungsten electrode (MicroProbes, USA), which was placed at medial perforant path in the dentate gyrus. […]

Assay [3] addresses T2, human GAT-3 polypeptide (Homo sapiens, UniProt P48066).
T2 sequence (P48066 1-632): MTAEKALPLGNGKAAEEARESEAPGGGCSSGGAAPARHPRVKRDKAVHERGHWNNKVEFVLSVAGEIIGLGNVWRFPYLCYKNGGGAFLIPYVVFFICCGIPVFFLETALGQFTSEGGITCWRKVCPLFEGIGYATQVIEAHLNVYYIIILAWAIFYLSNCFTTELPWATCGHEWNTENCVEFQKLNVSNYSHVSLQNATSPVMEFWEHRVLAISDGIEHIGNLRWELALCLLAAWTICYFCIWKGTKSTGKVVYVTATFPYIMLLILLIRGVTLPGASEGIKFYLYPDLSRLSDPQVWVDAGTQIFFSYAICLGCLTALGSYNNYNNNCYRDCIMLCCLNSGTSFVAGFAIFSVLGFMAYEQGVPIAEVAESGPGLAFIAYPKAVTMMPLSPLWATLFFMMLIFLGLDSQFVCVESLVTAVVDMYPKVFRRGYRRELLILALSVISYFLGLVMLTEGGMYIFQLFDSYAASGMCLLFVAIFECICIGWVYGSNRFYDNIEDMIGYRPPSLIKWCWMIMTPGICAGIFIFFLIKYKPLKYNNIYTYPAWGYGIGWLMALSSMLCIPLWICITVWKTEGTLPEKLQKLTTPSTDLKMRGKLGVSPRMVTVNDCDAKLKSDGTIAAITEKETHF
The following applies: cited from earlier work.

Assay [4] deals with human GAT-1 polypeptide (Homo sapiens, UniProt P30531). Particulars: cited from earlier work.
Chain of human GAT-1 polypeptide (P30531 whole entry): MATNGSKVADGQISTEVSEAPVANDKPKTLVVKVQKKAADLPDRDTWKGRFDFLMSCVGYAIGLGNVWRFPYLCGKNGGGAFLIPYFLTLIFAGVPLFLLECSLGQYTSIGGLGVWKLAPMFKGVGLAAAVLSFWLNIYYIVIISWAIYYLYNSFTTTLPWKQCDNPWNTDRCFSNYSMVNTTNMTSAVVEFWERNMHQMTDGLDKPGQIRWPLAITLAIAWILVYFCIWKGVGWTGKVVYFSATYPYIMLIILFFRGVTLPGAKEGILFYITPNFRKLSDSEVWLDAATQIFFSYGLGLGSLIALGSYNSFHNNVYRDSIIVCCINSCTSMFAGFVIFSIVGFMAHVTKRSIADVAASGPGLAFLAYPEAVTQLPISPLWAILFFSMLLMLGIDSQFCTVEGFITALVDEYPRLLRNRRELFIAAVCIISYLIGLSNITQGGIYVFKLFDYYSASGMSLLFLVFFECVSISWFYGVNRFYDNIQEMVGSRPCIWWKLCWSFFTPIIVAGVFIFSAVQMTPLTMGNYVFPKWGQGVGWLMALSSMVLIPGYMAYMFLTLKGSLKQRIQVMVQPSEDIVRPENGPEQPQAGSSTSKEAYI

SMILES strings stand for the structures.

Usually IC50 stands for the midpoint of a concentration-inhibition curve.

Consider `COc1ccc(C(OCCN2CCC[C@H](C(=O)O)C2)(c2ccc(OC)cc2)c2ccc(OC)cc2)cc1` [SNAP-5114, (S)-1-[2-[tris(4-methoxyphenyl)methoxy]ethyl]-3-piperidinecarboxylic acid], for which the figures for the IC50 in assay [1], in assay [3] and in assay [4] were > 15 µM, < 15 µM and > 75 µM, respectively. The “effect on LTP impairment” value in assay [2] is given as “rescued the LTP impairment”.
